The values that follow come from patent US5674432A, “Photochromic naphthopyran compounds” (Transitions Optical, Inc., priority 1995, dated 1997).

Series [1] is described as follows: lambda max (UV) in diethylene glycol dimethyl ether solution by UV spectrophotometer. Type of series: physicochemical. Conditions: approximately 0.5 milligram per milliliter, wavelength in the ultraviolet range closest to the visible spectrum. Set-up: unit not given here. As for the experimental part:
The compounds of the Examples and the Comparative Examples were dissolved in diethylene glycol dimethyl ether. The concentrations of the resulting solutions were approximately 0.5 milligram per milliliter. Each solution was tested in a UV spectrophotometer to determine the lambda max (U/V). The lambda max (UV) reported in Table 1 for each of the Examples is the wavelength in the ultraviolet range closest to the visible spectrum.

Series [2] in a line: lambda max (VIS) of the activated (colored) form in a homopolymer of diethylene glycol bis(allyl carbonate). It is filed as physicochemical. As for the experimental part:
(§1) Testing was done with selected photochromic naphthopyrans imbibed into test square polymerizates by a thermal transfer process. The test square polymerizates were prepared from a homopolymer of diethylene glycol bis(allyl carbonate) and measured 1/8 inch (0.3 centimeters)×2 inches (5.1 centimeters)×2 inches (5.1 centimeters). The test squares were imbibed by the following procedure. Each naphthopyran was dissolved .into toluene to form a 4 weight percent solution of the compound. A piece of No.4 Whatman filter paper was saturated with the naphthopyran toluene solution and allowed to air dry. The dried filter paper was placed on one side of the test square. A piece of untreated filter paper was placed on the other side of the polymeric test square and the resulting sandwich was placed between two flat aluminum metal plates. The entire assembly was then placed in an oven kept at 135° to 155° C. for a time sufficient to thermally transfer the naphthopyran into the polymeric test square. After cooling, each test square was washed with acetone.
The photochromic test squares of Part B were tested for photochromic response rates on an optical bench. Prior to testing on the optical bench, the photochromic test squares were exposed to 365 nanometer ultraviolet light for about 15 minutes to activate the photochromic compounds and then placed into a 76° C. oven for about 15 minutes to bleach or inactivate the photochromic compounds. The test squares were then cooled to room temperature, exposed to fluorescent room lighting for at least 2 hours and then kept covered for at least 2 hours prior to testing on an optical bench maintained at 75° F. (23.9° C.).
(§2) The optical bench comprises a 150 watt Xenon arc lamp, a tungsten lamp, power supplies for both lamps, condensing lenses as needed to maintain collimated light beams from both lamps, a remote controlled shutter, a copper sulfate bath acting as a heat sink for the arc lamp, a Schott WG-320 nm cut-off filter which removes short wavelength radiation, neutral density filter(s), a sample holder in which the sample to be tested is inserted, a photopic filter, light detector, and radiometer assembly, a strip chart recorder, and a means for maintaining the alignment of the aforestated components during testing.
The ΔOD/Min, which represents the sensitivity of the photochromic compound's response to UV light, was measured over the first five (5) seconds of UV exposure, then expressed on a per minute basis. The saturation optical density (OD) was taken under identical conditions as the ΔOD/Min, except UV exposure was continued for 20 minutes. The lambda max (VIS) reported in Table 2 is the wavelength in the visible spectrum at which the maximum absorption of the activated (colored) form of the photochromic compound in a homopolymer of diethylene glycol bis(allyl carbonate) occurs. The bleach rate (T 1/2) is the time interval in seconds for the absorbance of the activated form of the naphthopyran in the test squares to reach one half the highest absorbance at room temperature (75° F., 23.9° C.) after removal of the source of activating light.

A short description of series [3]: photochromic response on an optical bench (sensitivity, saturation optical density, bleach rate) of imbibed test squares. It is filed as physicochemical. Particulars: for OD @ SATURATION: UV exposure continued for 20 minutes; for OD @ SATURATION / Δ OD/Min SENSITIVITY: 75° F. (23.9° C.); for Δ OD/Min SENSITIVITY: first five (5) seconds of UV exposure, expressed per minute; for BLEACH RATE T1/2: time for absorbance of activated form to reach one half the highest absorbance at room temperature (75° F., 23.9° C.) after removal of activating light. As for the experimental part: as §1, with “The entire assembly was then placed in an oven kept at 135° to 155° C. for a time sufficient to thermally transfer the naphthopyran into the polymeric test square.” left out
The photochromic test squares of Part B were tested for photochromic response rates on an optical bench.
as §2
Change in optical density (ΔOD) of a sample was determined by inserting a photochromic test sample in the bleached state into the sample holder, adjusting the transmittance scale to 100%, opening the shutter from the Xenon lamp to provide ultraviolet radiation to change the sample from the bleached state to an activated (darkened) state, measuring the transmittance through the sample. The transmittance was measured by directing a beam of light from the tungsten lamp at a small angle normal to the surface of the sample, through the sample, and to a photopic filter, light detector and radiometer assembly. The photopic filter passes wavelengths such that the detector mimics the response of the human eye and produces output signals that are processed by the radiometer. The change in optical density was calculated according to the formula ΔOD=log(100/% Ta) where % Ta is the percent transmittance in the activated state and the logarithm is to the base 10.
The ΔOD/Min, which represents the sensitivity of the photochromic compound's response to UV light, was measured over the first five (5) seconds of UV exposure, then expressed on a per minute basis. The saturation optical density (OD) was taken under identical conditions as the ΔOD/Min, except UV exposure was continued for 20 minutes. The lambda max (VIS) reported in Table 2 is the wavelength in the visible spectrum at which the maximum absorption of the activated (colored) form of the photochromic compound in a homopolymer of diethylene glycol bis(allyl carbonate) occurs.

The conditions of series [4]: cited from earlier work.
Where [5] appears, read: vs 3,3-diphenyl-3H-naphtho[2,1-b]pyran and 5-, 7- or 9-methoxy compounds, U.S. Pat. No. 5,238,981.

Take `Cc1cccc(C2(c3ccccc3)C=Cc3c(ccc4c5c(ccc34)OC(C)C5)O2)c1` (stereo not drawn) [Example 1, 7-(phenyl)-7-(3-methylphenyl)-7H-2-methyl-2,3-dihydrofuro[3',2',:5,6]naphtho[2,1-b]pyran]: the “Lambda max (UV)” value in series [1] stood at 394.
With `C1=CC(c2ccccc2)(c2ccccc2)Oc2ccc3c4c(ccc3c21)OCCC4` [Example 8, 9,9-diphenyl-3H,9H-1,2-dihydronaphtho[2,1-b:6,5-b']dipyran], in series [1], the “Lambda max (UV)” value was determined as 382.
In the case of `COc1ccc(C2(c3ccc(OC)cc3OC)C=Cc3c(ccc4c3ccc3oc(C)cc(=O)c34)O2)cc1` (stereo not drawn) [Example 10, 9-(2,4-dimethoxyphenyl)-9-(4'-methoxyphenyl)-3-methyl-1H,9H-naphtho[2,1-b:6,5-b']dipyran-1-one], in series [1], the “Lambda max (UV)” value turned out to be 384.
Regarding `COc1ccc(C2(c3ccc(OC)cc3OC)C=Cc3c(ccc4c3ccc3oc(=O)cc(C)c34)O2)cc1` (stereo not drawn) [Example 9, 9-(2,4-dimethoxyphenyl)-9-(4'-methoxyphenyl)-1-methyl-3H,9H-naphtho[2,1-b:6,5-b']dipyran-3-one], the “Lambda max (UV)” value in series [1] was determined as 396.
On to `COc1ccc(C2(c3ccccc3F)C=Cc3c(ccc4c5c(ccc34)OC(C)C5)O2)cc1` (stereo not drawn) [Example 6, 7-(2-fluorophenyl)-7-(4-methoxyphenyl)-7H-2-methyl-2,3-dihydrofuro[3',2',:5,6]naphtho[2,1-b]pyran], for which the “Lambda max (UV)” value in series [1] is recorded as 393.
On to `COc1cccc(C2(c3ccccc3)C=Cc3c(ccc4c5c(ccc34)OC(C)C5)O2)c1` (stereo not drawn) [Example 5, 7-(phenyl)-7-(3-methoxyphenyl)-7H-2-methyl-2,3-dihydrofuro[3',2',:5,6]naphtho[2,1-b]pyran], for which the “Lambda max (UV)” value in series [1] is 395. Further, the “LAMBDA MAX (VIS)” value in series [2] is 495 nm. In series [3], the “OD @ SATURATION” value was found to be 0.74, the “Δ OD/Min SENSITIVITY” value is listed as 1.43 Δ OD/Min and the “BLEACH RATE T1/2” value is 2.75 min.
Turning to `C1=CC(c2ccccc2)(c2ccccc2)Oc2ccc3ccccc3c21` [Comparative Example 1, 3,3-diphenyl-3H-naphtho[2,1-b]pyran, reference compound], the “Lambda max (UV)” value in series [1] amounted to 359. The “LAMBDA MAX (VIS)” value in series [2] turned out to be 430 nm. In series [3], the “OD @ SATURATION” value worked out at 0.36, the “Δ OD/Min SENSITIVITY” value was 0.87 Δ OD/Min and the “BLEACH RATE T1/2” value was 0.75 min. In addition, in series [4] (at room temperature and above), the “optical density at saturation” value is on record as “too low for use in optical applications”, the “optical density change on exposure to ultraviolet light” value was “changes too slowly” and the “sensitivity on exposure to ultraviolet light” value is given as “low”.
Consider `CC1Cc2c(ccc3c4c(ccc23)OC(c2ccccc2)(c2ccccc2)C=C4)O1` (stereo not drawn) [Example 2, 7,7-diphenyl-7H-2-methyl-2,3-dihydrofuro[3',2',:5,6]naphtho[2,1-b]pyran], for which the “Lambda max (UV)” value in series [1] stood at 394. Further, the “LAMBDA MAX (VIS)” value in series [2] was found to be 488 nm. Further, in series [3], the “OD @ SATURATION” value is 0.66, the “Δ OD/Min SENSITIVITY” value was 1.35 Δ OD/Min and the “BLEACH RATE T1/2” value worked out at 1.77 min.
For the compound `COc1ccc2c3c(ccc2c1)OC(c1ccccc1)(c1ccccc1)C=C3` [Comparative Example 2, 3,3-diphenyl-8-methoxy-3H-naphtho[2,1-b]pyran, reference compound], the “Lambda max (UV)” value in series [1] came out at 376. For the same compound, the “LAMBDA MAX (VIS)” value in series [2] came to 473 nm. In series [3], the “OD @ SATURATION” value is given as 0.73, the “Δ OD/Min SENSITIVITY” value is on record as 1.25 Δ OD/Min and the “BLEACH RATE T1/2” value stood at 1.45 min. Besides, the “lambda max (UV), in words” value in series [4] (near visible threshold range about 390 to 410 nanometers, U.S. Pat. No. 5,238,981) is listed as “shifted towards the near visible threshold range”. Also, in series [4] (setting [5]), the “optical density at saturation, comparison in words” value was “enhanced sensitivity and optical density at saturation”; the “sensitivity, comparison in words” value was “enhanced sensitivity”.
Turning to `Cc1coc2ccc3c4c(ccc3c12)OC(c1ccccc1)(c1ccccc1)C=C4` [Example 7, 7,7-diphenyl-7H-3-methylfuro[3',2',:5,6]naphtho[2,1-b]pyran], in series [1], the “Lambda max (UV)” value is 372.
Consider `CC1Cc2c(ccc3c4c(ccc23)OC(c2ccccc2)(c2cccc(C(F)(F)F)c2)C=C4)O1` (stereo not drawn) [Example 3, 7-(phenyl)-7-(3-trifluoromethylphenyl)-7H-2-methyl-2,3-dihydrofuro[3',2',:5,6]naphtho[2,1-b]pyran], for which the “Lambda max (UV)” value in series [1] amounted to 396. Besides, the “LAMBDA MAX (VIS)” value in series [2] is 494 nm. In series [3], the “OD @ SATURATION” value is 0.74, the “Δ OD/Min SENSITIVITY” value was 1.38 Δ OD/Min and the “BLEACH RATE T1/2” value stood at 2.18 min.
Turning to `CC1Cc2c(ccc3c4c(ccc23)OC(c2ccccc2)(c2cccc(F)c2)C=C4)O1` (stereo not drawn) [Example 4, 7-(phenyl)-7-(3-fluorophenyl)-7H-2-methyl-2,3-dihydrofuro[3',2',:5,6]naphtho[2,1-b]pyran], in series [1], the “Lambda max (UV)” value was 394. The “LAMBDA MAX (VIS)” value in series [2] came out at 489 nm. For the same compound, in series [3], the “OD @ SATURATION” value turned out to be 0.76, the “Δ OD/Min SENSITIVITY” value is on record as 1.44 Δ OD/Min and the “BLEACH RATE T1/2” value was 1.82 min.
